From article PMC1177995 (Virology Journal, 2005) come the findings set out here.

One assay deals with DENV strain New Guinea-2. It counts as cell-based, dengue virus.
The test system of the next assay is WNV strain Egypt 101. The format is cell-based, West Nile virus. The note with it: 100 μg/ml, compared to the original peptide.

Where a SMILES comes first, the peptide text is derived from it.

Take `CC[C@H](C)[C@H](NC(=O)[C@H](C)NC(=O)CNC(=O)[C@H](Cc1ccccc1)NC(=O)[C@@H](NC(=O)[C@H](CCC(N)=O)NC(=O)[C@H](Cc1c[nH]cn1)NC(=O)[C@H](CC(C)C)NC(=O)[C@H](C)NC(=O)[C@H](CCCCN)NC(=O)CNC(=O)[C@@H](NC(=O)[C@H](CO)NC(=O)[C@@H](NC(=O)[C@H](Cc1ccccc1)NC(=O)[C@@H](NC(=O)CNC(=O)CNC(=O)[C@H](CC(C)C)NC(=O)[C@H](CO)NC(=O)CNC(=O)[C@H](Cc1ccccc1)NC(=O)[C@H](CC(=O)O)NC(=O)[C@H](Cc1c[nH]c2ccccc12)NC(=O)[C@H](C)NC(=O)[C@@H](NC(=O)[C@H](CC(=O)O)NC(=O)CNC(=O)[C@H](CC(C)C)NC(=O)[C@@H](NC(=O)[C@H](C)NC(=O)[C@@H](N)CCSC)[C@@H](C)CC)[C@@H](C)O)C(C)C)[C@@H](C)O)[C@@H](C)CC)C(C)C)C(=O)N[C@@H](Cc1ccc(O)cc1)C(=O)O` [DN59] (H-MAILGDTAWDFGSLGGVFTSIGKALHQVFGAIY-OH): the “maximum inhibitory activity against DENV” value with DENV strain New Guinea-2 (at 20 μM, dose-response, mean +/- SD, triplicate) is recorded as 100.0 +/- 0.5%.

As to VATWHLDWSREFPLFLMNS [Scrambled WN83], the “inhibitory effect of scrambled peptide against WNV” value in the assay with WNV strain Egypt 101 is reported as “no inhibitory activity”.

Turning to “YFIDTSGAIWGASHLTGVLFDFMGIQGGAVLAK [Scrambled DN59]”, the “inhibitory effect of scrambled peptide against DENV” value in the assay on DENV strain New Guinea-2 (100 μg/ml, compared to the original peptide) was “no inhibitory activity”.
